Experimental data reported in US8536152B2, “Methods of using diacerein as an adjunctive therapy for diabetes” (TWi Biotechnology, Inc., priority 2010, dated 2013).

Experiments:
[1] = system: patients with type 2 diabetes inadequately controlled by current oral antidiabetic therapy; assay: Same clinical study: adverse events; type: in vivo, human
Description: (§1) Procedure: This was a randomized, double-blind, parallel comparison study comparing 50 mg diacerein versus placebo in patients with type 2 DM inadequately controlled by previous antidiabetic therapy. The starting dose of diacerein was 50 mg once daily every morning for 4 weeks and could be adjusted up to 50 mg twice daily (morning and evening) if patients had become accustomed to the medication. Patients were screened for eligibility four weeks (week-4) prior to entry at baseline (week 0). During this 4-week screening period, the participants continued their previous antidiabetic therapy, dietary habits and other lifestyle habits. In order to be eligible for randomization following the 4-week screening period, patients must not have experienced hypoglycemia and must have had two fasting plasma glucose (FPG) measurements of between 135 to 250 mg/dL. At the end of the screening period, patients who met eligibility requirements were randomly assigned to receive diacerein 50 mg or placebo twice a day for 24 weeks observation. During treatment/observation period, the previous antidiabetic therapy including the class and/or dosage was not changed. Patients were asked to attend the center on eight occasions (screening, baseline, week 4, 8, 12, 16, 20 and 24) during the trial. The total study duration including the screening period for each patient was 28 weeks. There was a two weeks follow-up period after completion of the treatment/observation. During this follow-up period, patients were followed for adverse events.
Adverse events were summarized according to the Medical Dictionary for Regulatory Activities (MedDRA) adverse event dictionary. The tabulations counted the number of patients reporting individual preferred term adverse events and the total number of patients reporting at least one adverse event per system organ class. If appropriate, the incidence of adverse events was compared for each of the two treatment groups using Fisher's Exact test.

[2] = system: patients with type 2 diabetes inadequately controlled by current oral antidiabetic therapy; assay: Same clinical study: cardiovascular safety endpoints (body weight, blood pressure, pulse rate, lipid profiles); type: in vivo, human; set-up: Total Cholesterol, Change / Triglyceride, Change / HDL, Change / LDL, Change: unit not given here
Text: (§2) Subjects: Male or female type 2 DM patients (BMI≦35 kg/m^2) on a stable oral hypoglycemic […] for at least 3 months prior to screening visit. The hemoglobin A1c (HbA1c) measurements taken at a screening visit were between 7% and 12%. Patients enrolled in the study were receiving one or more oral antihyperglycemic agents including sulfonylurea, biguanides, alpha-glucosidase inhibitors, thiazolidinediones (TZDs) and nonsulfonylurea insulin secretagogues.
as §1
For the efficacy parameters, descriptive statistics were presented by visit. Statistical analysis was performed to assess the mean change from baseline. The area under the concentration-time curve (AUC) was used for evaluating the parameters measured by oral glucose tolerance test.

[3] = system: patients with type 2 diabetes inadequately controlled by current oral antidiabetic therapy; assay: Same clinical study: homeostatic model assessment (HOMA) beta cell function; type: in vivo, human
Text: as §2
as §1, with “There was a two weeks follow-up period after completion of the treatment/observation. During this follow-up period, patients were followed for adverse events.” left out
(§3) For the efficacy parameters, descriptive statistics were presented by visit. […] The area under the concentration-time curve (AUC) was used for evaluating the parameters measured by oral glucose tolerance test.

[4] = system: patients with type 2 diabetes inadequately controlled by current oral antidiabetic therapy; assay: Same clinical study: fasting plasma glucose; type: in vivo, human; details: at 24 weeks
Text: as §2
Procedure: This was a randomized, double-blind, parallel comparison study comparing 50 mg diacerein versus placebo in patients with type 2 DM inadequately controlled by previous antidiabetic therapy. The starting dose of diacerein was 50 mg once daily every morning for 4 weeks and could be adjusted up to 50 mg twice daily (morning and evening) if patients had become accustomed to the medication. Patients were screened for eligibility four weeks (week-4) prior to entry at baseline (week 0). During this 4-week screening period, the participants continued their previous antidiabetic therapy, dietary habits and other lifestyle habits. […]
as §3

[5] = system: patients with type 2 diabetes inadequately controlled by current oral antidiabetic therapy; assay: Randomized, double-blind, placebo-controlled study of add-on diacerein: glycosylated hemoglobin (HbA1c); type: in vivo, human
Text: Primary Endpoints: To compare the efficacy of add-on diacerein with no add-on treatment (placebo) on glycosylated hemoglobin (HbA1c) after 24-week double-blind treatment in type 2 DM patients inadequately controlled by previous antidiabetic therapy.
as §2
as §1, with “During this follow-up period, patients were followed for adverse events.” left out
Statistical method(s) for efficacy/safety evaluations: The difference (diacerein minus placebo) of HbA1c reduction between the two treatment groups was analyzed by analysis of covariance (ANCOVA) with baseline value as covariate. The corresponding 95% confidence interval was calculated. Within-group changes were also analyzed, with paired t test used to evaluate differences from baseline in each treatment group.
For the efficacy parameters, descriptive statistics were presented by visit. […] The area under the concentration-time curve (AUC) was used for evaluating the parameters measured by oral glucose tolerance test. […]

[6] = system: type 2 (or type II) diabetes rodent models; details: type 2 diabetes rodent models; cited from earlier work
[7] = Week 24, N 28, in mg/dL (unit assumed)
[8] = Week 24, N 28, in mmHg (unit assumed)

With CC(=O)Oc1cccc2c1C(=O)c1c(OC(C)=O)cc(C(=O)O)cc1C2=O [diacerein, 4,5-bis(acetyloxy)-9,10-dioxo-2-anthracene carboxylic acid] the “difference between the two groups in the incidence of patients complaining of adverse events” value ([1]; diacerein vs placebo) was “No statistically significant difference”, the “patients reporting at least one adverse effect (AE), number” value ([1]; during the study period) was 20 patients and the “patients reporting at least one adverse effect (AE), percent” value ([1]; during the study period) was 54.1%. For the same molecule, the symptomatic hypoglycemia ([1]; even in patients with a marked improvement in HbA1c levels) was “not observed”, the “pulse rate, Mean ± SD” value ([2]; Week 24, N 28) was 77.18 ± 10.22 and the “HDL, Mean ± SD” value [2, 7] was 42.25 ± 10.40. The “LDL, Mean ± SD” value [2, 7] was 91.64 ± 27.28, the “Total Cholesterol, Mean ± SD” value [2, 7] was 164.61 ± 30.09 and the “Triglyceride, Mean ± SD” value [2, 7] was 159.18 ± 97.07. For the same molecule, the “Systolic blood pressure, Mean ± SD” value [2, 8] was 130.32 ± 16.85, the “diastolic blood pressure, Mean ± SD” value [2, 8] was 78.86 ± 8.20 and the “HDL, Change” value ([2]; Week 24 vs baseline) was −0.96 ± 10.27. The “LDL, Change” value ([2]; Week 24 vs baseline) was −6.09 ± 19.75, the “Systolic blood pressure, Change” value ([2]; Week 24 vs baseline) was −0.25 ± 14.38 and the “Total Cholesterol, Change” value ([2]; Week 24 vs baseline) was −8.46 ± 32.20. For the same molecule, the “Triglyceride, Change” value ([2]; Week 24 vs baseline) was −7.57 ± 98.79, the “diastolic blood pressure, Change” value ([2]; Week 24 vs baseline) was −1.14 ± 8.78 and the “pulse rate, Change” value ([2]; Week 24 vs baseline) was 1.46 ± 9.00. For the same molecule, the “risks of heart attack and cardiovascular disorders” value ([2]; adding diacerein to current anti-diabetic treatment) was “did not increase”, the “differences between treatment groups in body weight, blood pressure, pulse rate and lipid profiles” value ([2]; between baseline levels and levels at week 24, diacerein vs placebo) was “no statistically significant differences” and the “within-group change from baseline in HOMA-BETA” value ([3]; over 24 weeks) was “significant”. For the same molecule, the “HOMA beta cell function (HOMA-BETA) course over treatment” value ([3]; over the course of treatment) was “continual improvement”, the HOMA-BETA ([3]; week 24) was 56.26 and the “fasting plasma glucose levels versus placebo group” value [4] was “consistently lower”. The “between-group difference in HbA1c change (diacerein vs placebo)” value ([5]; 24 weeks, P=0.0158) was 0.63 percentage point, the “average absolute difference in HbA1c levels between baseline and 24 weeks (reduction)” value ([5]; add-on diacerein 50 mg twice a day, 24 weeks, within group) was 0.63 percentage point and the “HbA1c absolute reduction versus the placebo group” value ([5]; after 20 weeks, P=0.0223) was 0.60%. For the same molecule, the “number of patients who had any reduction in HbA1c levels” value ([5]; at 24 weeks) was 20 of 26.

In the case of O=C(O)c1cc(O)c2c(c1)C(=O)c1cccc(O)c1C2=O [Rhein, 9,10-dihydro-4,5-dihydroxy-9,10-dioxo-2-anthracenecarboxylic acid], the “blood glucose concentration control” value [6] is given as “control the blood glucose concentration”.
